# Read-outs that look alike come from different tables or passages of the source.
# Experiments:
# [1] = system: PC-3 human prostate tumor; assay: GFP PC3 prostate orthotopic model; type: in vivo, mice
# [2] = Repeat dose GLP study with dogs; type: in vivo
# Excerpt: These changes were reversible.
# [3] = Biodistribution by whole body autoradiography; type: in vivo, male Sprague Dawley rats; settings: rats, [^14C] TH302 50 mg/kg single i.v. bolus
# Protocol: TH302 to rats. Five male Sprague Dawley rats were assigned to one dose group. Non-radiolabeled TH302 (0.06 g) was weighed into an appropriate formulation bottle, a solution of 153 μL of [^14C] TH302 was measured and transferred to the formulation bottle, followed by the addition of 6.85 mL of 50 PEG400 in saline. The resulting formulation was cold-sterilized by filtration through a 0.22 μm mesh size commercial filter. The dosing formulation was kept at ambient temperature and in the dark pending dose administration. Animals were administered radiolabelled TH302 by intravenous injection of the formulation at a dose of 50 mg/kg wherein a radioactivity of about 100 μCi was administered. Following administration of TH302, the animals were sacrificed at selected time-points and carcasses were flash-frozen and processed for sectioning. A series of sagittal and para-sagittal sections were obtained from each carcass and were exposed to highly sensitive film until adequate imprinting of radioactivity was obtained. The pictures obtained were analyzed semi-quantitatively using computerized densitometry.
# [4] = GLP multiple-dose toxicity study in rats; type: in vivo
# Protocol: (§1) Each rat received a 30 minute infusion once a week for three weeks (Q7D×3).
# [5] = Single-dose toxicity in dogs; type: in vivo
# Protocol: A single-dose of TH302 was administered to rats and dogs over 30 min in order to achieve a rapid increase to relatively high drug levels. Rats were administered 50, 100, and 200 mg/kg, and dogs at 8, 16 and 32 mg/kg of TH302. […] These changes at the lowest toxicity level were fully reversible within 2 weeks.
# [6] = system: IGROV1 human ovarian cancer cells; assay: IGROV1 ovarian cancer xenograft; type: in vivo; settings: 75 mg/kg i.v. Q7D×2
# Protocol: Forty nude mice were subcutaneously implanted with IGROV1 human ovarian cancer cells (5×10^6 cells/mouse). The tumor volumes were measured twice weekly starting on day 7. On day 8, tumor volumes reached about 97.7±3.9 mm^3. The mice were randomized in 3 treatment groups that were administered the following: CDDP (4 mg/kg, ip, Q7D×2), CDDP (6 mg/kg, i.p. Q7D×2), and TH302 (75 mg/kg, i.v., Q7D×2). A control group of mice were administered saline. […] Forty five days after the first administration of TH302, tumor growth inhibition was 66%. The tumor growth delay (to 300 mm^3) was 19 days.
# [7] = Pharmacokinetics after repeated administration (Q7D×3) to rats; type: in vivo; settings: rat, plasma; for clearance / AUC / Cmax / half-life / Vd: iv, TH302 in rats; for AUC: read-out: AUC; for Cmax: read-out: Cmax; for half-life: read-out: Half-Life (converted); for Vd: read-out: Vss
# Protocol: as §1
# Br-IPM being capable of reacting with water and a number of other nucleophiles, for HPLC analysis of Br-IPM, the plasma obtained was frozen and treated with NaF and potassium oxalate.
# [8] = Stability of ethanol formulation of TH302 by HPLC; type: physicochemical; settings: for TH302 (%): 40 μg/mL in ethanol
# Protocol: A liquid formulation of TH302 in ethanol was prepared containing 1 mg TH302 in 1 mL of the solution. Aliquots were withdrawn from this formulation and diluted with ethanol to yield a 40 μg/mL formulation of TH302 in ethanol, which was incubated at 20° C. and 37° C. and the stability analyzed by high performance liquid chromatography (HPLC). The HPLC employed the following components and conditions: column (Alltech, Alltima C18, 50×4.6, 3 μm), mobile phase (water and acetonitrile), flow rate 0.8 mL/min, injection volume (10 μL), detection (UV detection at 325 nm and 254 nm), and column temperature (room temperature). The composition of the mobile phase was as tabulated below: […]
compound,measurement,setting,value
Cn1c(COP(=O)(NCCBr)NCCBr)cnc1[N+](=O)[O-] [TH302],reduction in tumor volume,[1]; compared to final measurements in the vehicle group (day 31),84%
same,tumor growth delay (TGD),"[1]; single agent, Taxotere 12 mg/kg once a week for two weeks",16 days
same,human equivalent dose of the minimally toxic dose,[2]; 8 mg/kg dog dose divided by 1.8,about 4.5 mg/kg
same,minimally toxic dose,[2]; dog,8 mg/kg
same,bone marrow finding at the high dose level,"[2]; dogs, 16 mg/kg repeat dose",hypocellularity was also reported in the bone marrow
same,hematologic findings,"[2]; dogs, 4, 8, and 16 mg/kg repeat dose, particularly at the high dose level",leucopenia and neutropenia were evident
same,reversibility of changes,"[2]; dogs, repeat dose",reversible
same,distribution of radioactivity,[3],"associated with the gastro-intestinal (GI) tract, its contents, and the kidney"
same,human equivalent dose of the minimally toxic dose,[4]; 25 mg/kg rat dose divided by 6.2,about 4 mg/kg
same,minimally toxic dose,[4]; rat,25 mg/kg
same,histopathology at the highest dose,"[4]; rats, 50 mg/kg Q7D×3",effects on the bone marrow and the tongue with minor effects on the kidney and the uterus
same,primary toxicities,"[4]; rats, 12.5, 25 and 50 mg/kg, 30 minute infusion Q7D×3",hematologic in nature and were reversible
same,affected organs at the highest dose level,[5]; 32 mg/kg single dose,"bone marrow, kidney, thymus and intestine"
same,lethality,"[5]; single dose over 30 min, highest dose 32 mg/kg",lethality was observed
same,primary findings at the lowest toxicity level,[5]; single dose study,reduction in white blood cell counts
same,time to full reversal of changes at the lowest toxicity level,[5]; single dose study,≤ 2 weeks
same,body weight during the treatment period,[6],body weight gain
same,tumor growth delay (to 300 mm^3),[6],19 days
same,growth inhibition (significance),[6]; P<0.05,significant growth inhibition
same,tumor growth inhibition,[6]; forty five days after the first administration,66%
same,AUC at 15 day,"[7]; intravenous, rats, 25 mg/kg dose of TH302, read-out: drug exposure, AUC of TH302",~2110 ng·h/mL
same,clearance,"[7]; 12.5 mg/kg Q7D×3, Day 15",293 mL/min/kg
same,AUC,"[7]; 12.5 mg/kg Q7D×3, Day 15",699 ng·h/mL
same,Cmax,"[7]; 12.5 mg/kg Q7D×3, Day 15",1210 ng/mL
same,half-life,"[7]; 12.5 mg/kg Q7D×3, Day 15",16 min
same,Vd,"[7]; 12.5 mg/kg Q7D×3, Day 15",8.71 L/kg
same,clearance,"[7]; 25 mg/kg Q7D×3, Day 15",275 mL/min/kg
same,AUC,"[7]; 25 mg/kg Q7D×3, Day 15",2110 ng·h/mL
same,Cmax,"[7]; 25 mg/kg Q7D×3, Day 15",3640 ng/mL
same,half-life,"[7]; 25 mg/kg Q7D×3, Day 15",18.7 min
same,Vd,"[7]; 25 mg/kg Q7D×3, Day 15",8.28 L/kg
same,clearance,"[7]; 50 mg/kg Q7D×3, Day 15",197 mL/min/kg
same,AUC,"[7]; 50 mg/kg Q7D×3, Day 15",3250 ng·h/mL
same,Cmax,"[7]; 50 mg/kg Q7D×3, Day 15",5720 ng/mL
same,half-life,"[7]; 50 mg/kg Q7D×3, Day 15",20.8 min
same,Vd,"[7]; 50 mg/kg Q7D×3, Day 15",5.84 L/kg
same,TH302 (%),"[8]; 20° C., incubated 0 days",96.97%
same,TH302 (%),"[8]; 20° C., incubated 3 days",96.98%
same,TH302 (%),"[8]; 20° C., incubated 5 days",96.91%
same,TH302 (%),"[8]; 20° C., incubated 7 days",96.96%
same,TH302 (%),"[8]; 20° C., incubated 10 days",96.95%
same,TH302 (%),"[8]; 20° C., incubated 14 days",96.98%
same,TH302 (%),"[8]; 37° C., incubated 0 days",96.97%
same,TH302 (%),"[8]; 37° C., incubated 3 days",96.95%
same,TH302 (%),"[8]; 37° C., incubated 5 days",96.98%
same,TH302 (%),"[8]; 37° C., incubated 7 days",96.98%
same,TH302 (%),"[8]; 37° C., incubated 10 days",96.30%
same,TH302 (%),"[8]; 37° C., incubated 14 days",96.01%
same,TH302 (%),"[8]; 37° C., incubated 24 days",95.46%
same,stability of solution in ethyl alcohol,"[8]; 20° C., under the test conditions",stable
